From patent US20260092179A1, “GENETICALLY MODIFIED HOST CELLS PRODUCING VIOLACEIN, ANALOGUES, AND DERIVATIVES THEREOF” (OCTARINE BIO APS, priority 2022, published 2026)

Legend:
S. cerevisiae = assay: Cultivation of engineered S. cerevisiae production strains (titer of each metabolite, final OD600, product toxicity); conditions: intracellular accumulation; growth rate and final OD600
Experimental: Genetically engineered yeast strains were pre-cultured in 500 μL or 5 mL of liquid Delft minimal media (Table 10) with 20 g/L glucose and relevant amino acid supplements for 48 h at 30° C. and 280 rpm in 2 mL microtiter plates with air-permeable sealing or 12 mL cultivation tubes. Subsequently, 10 μL or 1 mL of yeast preculture was transferred to 490 μL or 49 mL of Delft minimal media with 20 g/L glucose and relevant amino acid supplements and cultivated for 72 h at 30° C. and 280 rpm in either a 2 mL microtiter plate with air-permeable sealing, or a 200 mL shakeflask. After cultivation, extracellular metabolites were extracted by mixing whole cell broth 1:1 with 100% methanol, vortexing thoroughly and centrifuging at 4000×g for 5 min. […]
In some cases, where a non-ionic surfactant was added to the cultivation media, extraction of extracellular metabolites was done by centrifuging the entire culture broth at 4000×g for 5 min to separate the culture into 3 phases, a biomass “pellet” a dilute surfactant phase, and a violacein or violacein derivative concentrated surfactant phase. […] Where possible, authentic analytical standards were used for quantification. […] Yeast cells were pelleted by centrifugation at 11.000×G for 5 min., and the supernatant was recovered and analyzed by UHPLC or LC-MS/MS. […]

[1] = Solubility, stability (heat, UV) and colour of violacein and proviolacein glycosides in aqueous solution; assay type: physicochemical
Description: In this experiment, qualitative assessments of the solubility, stability and colour of glycosylated violacein and proviolacein were made. The first notable observation was that after the scale-up glycosylation reaction the aqueous phase of the reaction mix was purple (for violacein) and blue (for proviolacein). […] While its well known that glycosylation greatly improves the water solubility of molecules, the attachment of a sugar group typically changes the physiochemical properties of the molecule. In the case of coloured compounds, this typically eliminates their colour. The observation here that glycosylation results in a derivative that retains the original colour is both surprising and commercially useful for use in aqueous products e.g. beverages. To test the stability of violacein and proviolacein glycosides in aqueous solution the solutions were exposed to heat (incubated at 80° c. for 6 h) and UV (incubated in a UV hood for 6 h). HPLC analysis before after each test was used to measure the amount that had degraded during exposure. […] (approx. 0.1% lost during exposure).

[2] = Free radical scavenging ability of dyed Nylon 6,6 fabric (DPPH); assay type: biochemical; conditions: dyed Nylon 6,6 fabric strip
Experimental: Violacein is reported as being a potent antioxidant able to effectively scavenge free radicals. […] To test this, 1.5×1.5 cm dyed Nylon 6,6 fabric strips were incubated in the dark at room temperature for 1 h in 5 mL of a 5×10^−5 M DPPH free radical solution in 100% ethanol. Undyed Nylon 6,6 fabric strips were included as a negative control. After 1 h absorbance was measured at 517 nm and % scavenging ability calculated as above.

E. coli DH5a = assay: Antimicrobial activity of dyed Nylon 6,6 fabric: final OD600 and % inhibition; assay type: cell-based
Experimental: (§1) Violacein is reported as being a potent antibiotic, capable of inhibiting the growth of a wide range of microbial kingdoms including bacteria, yeast, fungi, viruses, protozoa and nematode. […] To test this, overnight cultures of wild-type E. coli DH5a and S. cerevisiae S228c strains were diluted in 5 mL of cultivation media (LB for E. coli, minimal media for S. cerevisiae) to a starting OD600 of 0.1. 1.5×1.5 cm dyed Nylon 6,6 fabric strips were sterilized by submerging in 75% ethanol for 15 mins and air drying in a laminar air flow hood before adding to each culture (with undyed Nylon 6,6 fabric as a negative control). […] This experiment provides evidence that all violacein derivatives display antimicrobial properties.

S. cerevisiae S228c = assay: as above; assay type: cell-based
Experimental: as §1

[3] = UV absorption capability (absorbance maxima, UV-A, UV-B, UV-C absorption) by HPLC; assay type: physicochemical
Experimental: The software Agilent Openlab CDS Chemstation Rev.
Violacein is reported as being a potent UV absorbent able to effectively absorb UV radiation, however, much less is known about the other violacein derivatives. To investigate the potential of using violacein and violacein derivatives as UV inhibitors and to potentially impart UV protection to fabrics, the UV absorption spectra of each compound was analyzed by HPLC and the total absorption capability at each of the most relevant UV wavelengths quantified.
For the quantification of UV absorption capacity of the compound of interest, a chromatographic separation on the F5 column and a gradient of water/acetonitrile containing 0.05% formic acid was run according to Example 5). […] The compounds were quantified based on the signal at 230 nm, using calibration curves of authentic analytical standards.
The UV absorption capacity is represented in mAU.min/mM. UV-A, UV-B and UV-C represent the most relevant regions where UV protection is required. UV-C is the most harmful type of UV radiation and can be generated by inorganic sources. UV-B radiation predominantly comes from the suns rays and is responsible for sun burn. UV-A radiation is also derived predominantly from the suns rays, and while UV-A radiation is less harmful than UV-B or UV-C but is much more prevalent.

Experimental for S. cerevisiae SC-144: After cultivation cultures were transferred to 50 mL falcon tubes and centrifuged 4000×g for 5 min. […] The aqueous layers were separated from the cell pellets to observe the colour of the cells. […] Samples were diluted in water to a final volume of 100 μL until they were within the linear range of the spectrophotometric plate reader. Each sample was measured at 575 nm (experimentally determined to be the emission maxima of deoxyviolacein). […] The final OD600 of each cultivation was also measured by first washing the cell pellet with water (to remove as much deoxyviolacein from the media as possible) and finally resuspending in 50 mL water.

N=C(Cc1c[nH]c2ccccc12)C(=O)O [IPA imine, Indole 3-pyruvic acid imine]
toxicity to the yeast production host (S. cerevisiae): not toxic

(1,1,3,3-Tetramethylbutyl)phenyl-polyethylene glycol, Polyethylene glycol tert-octylphenyl ether [Triton X-114]
toxicity of in situ extractant to S. cerevisiae (S. cerevisiae SC-144): non-toxic

O=C1NC(c2c[nH]c3ccc(OC4OC(CO)C(O)C(O)C4O)cc23)=CC1=C1C(=O)Nc2ccccc21 (stereo not shown) [violacein glucoside]
amount lost (degraded) during exposure to UV [1]: approx. 0.1% | amount lost (degraded) during exposure to heat [1]: approx. 0.1% | water solubility [1]: water soluble

O=C1N=C(c2c[nH]c3ccccc23)C=C1c1c[nH]c2ccccc12 [prodeoxyviolacein]
OD517 ([2]; 1 h in the dark in 5×10^−5 M DPPH in 100% ethanol): 1.99 | Scavenging ability % ([2]; 1 h in the dark in 5×10^−5 M DPPH, vs undyed control): 12.28% | Final OD600 (E. coli DH5a; E. coli cultured overnight at 30° c. with dyed Nylon 6,6 fabric strip, starting OD600 0.1): 4.67 | % Inhibition (E. coli DH5a; E. coli, dyed Nylon 6,6 fabric vs undyed fabric control): 10.49% | Final OD600 (S. cerevisiae S228c; S. cerevisiae cultured overnight at 30° c. with dyed Nylon 6,6 fabric strip, starting OD600 0.1): 4.70 | % Inhibition (S. cerevisiae S228c; S. cerevisiae, dyed Nylon 6,6 fabric vs undyed fabric control): 12.35% | UV absorption capability in the UV-B region ([3]; 305 nm): particularly high | Total UV absorption UV C (245 nm) ([3]; AUC of HPLC peak at 245 nm per mM): 3516.1 (mAU · min)/mM | Total UV absorption UV B (305 nm) ([3]; AUC of HPLC peak at 305 nm per mM): 3778.8 (mAU · min)/mM | Total UV absorption UV A (360 nm) ([3]; AUC of HPLC peak at 360 nm per mM): 0 (mAU · min)/mM

CCCCCCCCCCCCCC(=O)OC(C)C [isopropyl myristate]
toxicity of in situ extractant to S. cerevisiae (S. cerevisiae SC-144): non-toxic
